How the values were obtained:
[1] = tested on: Red Imported Fire ant (RIFA), Solenopsis invicta; assay: Knockdown/mortality of ant workers under continuous exposure on treated glazed tile; assay type: in vivo; details: Table 72, β-cyfluthrin study, Red Imported Fire ant; for Average % Mortality after 15 min: glazed tile, continuous exposure, adjuvant = Compound A 1% + Compound B 0.5%
Excerpt: (§1) Treatments were allowed to dry overnight. […] Treatments were replicated minimum three times.
(§2) Treatments were allowed to dry overnight. […] Treatments were replicated a minimum of three times.

[2] = tested on: Argentine ant, Linepithema humile; assay: as above; details: for Average % Mortality after 15 min / Average % Mortality after 3 hr / Average % Mortality after 21 hr: Table 34, thiamethoxam/adjuvant in acetone; for Average % Mortality after 15 min / Average % Mortality after 3 hr / Average % Mortality after 21 hr / Average % Knockdown & Mortality after 2 hr / Average % Knockdown & Mortality after 4 hr / Average % Knockdown & Mortality after 15 min: glazed tile; for toxicity / efficacy of the substance alone (summary in words): Argentine ant, treated glazed tile
Method: (§3) Solutions of imidacloprid at 0.5% AI were prepared with and without methyl oleate @0.1, 1.0 and 5.0% in acetone. Treatments were applied using a micropipette to dispense 1 ml of test solution evenly on a 6″×6″ glazed tile. Actual coverage was about 5″×5″ (or 161 cm^2) for easy handling. Treatments were allowed to dry overnight. Ten Argentine ant workers were placed within a fluon or talc-coated PVC ring (φ7.6 cm×H 5.1 cm) under continuous exposure. A small vial filled with a cotton ball soaked in water was added as a drinking source after 3 hours. Treatments were replicated a minimum of three times. Evaluations for ant knockdown/mortality were made at various intervals and at 24 hours after exposure.
as §3, with “MATERIALS AND METHODS: Solutions” for “Solutions”, “linoleate” for “oleate”
as §3, with “MATERIALS AND METHODS: Solutions of” for “Solutions of”, “without methyl palmitate @0.1, 1.0” for “without methyl oleate @0.1, 1.0”, “after exposure. […]” for “after exposure.”

Aedes aegypti mosquito = assay: USDA Petri Dish Method, 3 min exposure to treated glazed tile; assay type: in vivo; details: Table 33, thiamethoxam/adjuvant in acetone, glazed tile, 3 min exposure
Method: (§4) Treatments were allowed to dry overnight. USDA Petri Dish Method was used as initial screening protocol. Twenty, 4-6 day old female Aedes aegypti mosquitoes were exposed to each treatment for 3 minutes and then moved to a clean untreated white paper index card. Treatments were replicated a minimum of three times. Mosquito knockdown was evaluated at various intervals through 7 hours after exposure. A small cotton ball soaked in sucrose solution was added on the screen top of the petri-dish as a drinking source. Mortality was evaluated at 24 hours after exposure.
MATERIALS AND METHODS: Solutions of resmethrin at 1 and 0.5% AI were prepared with and without adjuvant in acetone. […] USDA Petri Dish Method was used as initial screening protocol. Twenty, 4-6 day old female Aedes aegypti mosquitoes were exposed to each treatment for 3 minutes and then moved to a clean untreated white paper index card. Treatments were replicated a minimum of three times. Mosquito knockdown was evaluated at 3 minute intervals for the first 15 minutes and then at 5 minute intervals for the remainder of an hour. A small cotton ball soaked in sucrose solution was added on the screen top of the petri-dish as a drinking source. Mortality was evaluated at 24 hours after exposure.
as §4, with “6” for “7”
as §4, with “5 minute” for “various”, “for the first hour and then at 2, 4 and 6 hours.” for “through 7 hours after exposure.”
Treatments were allowed to dry overnight. USDA Petri Dish Method was used as initial screening protocol. Twenty, 4-6 day old female Aedes aegypti mosquitoes were exposed to each treatment for 3 minutes and then moved to a clean untreated white paper index card. Treatments were replicated a minimum of three times. Mosquito knockdown was evaluated at 3-5 minute intervals for the first hour. A small cotton ball soaked in sucrose solution was then added on the screen top of the petri-dish as a drinking source. Mortality was evaluated at 24 hours after exposure.
as §4, with “intervals through 2 hours after” for “intervals through 7 hours after”, “solution was then added on” for “solution was added on”
Treatments were allowed to dry overnight. USDA Petri Dish Method was used as initial screening protocol. Twenty, 4-6 day old female Aedes aegypti mosquitoes were exposed to each treatment for 3 minutes and then moved to a clean untreated white paper index card. Treatments were replicated a minimum of three times. Mosquito knockdown was evaluated at various hourly intervals. […]

[3] = tested on: Odorous House ant, Tapinoma sessile; assay: Knockdown/mortality of ant workers under continuous exposure on treated glazed tile; assay type: in vivo; details: Table 35, thiamethoxam/adjuvant in acetone, glazed tile
Excerpt: Actual coverage was about 5″×5″ (or 161 cm2) for easy handling. Treatments were allowed to dry overnight. […] Treatments were replicated minimum three times.
as §1, §2
Treatments were allowed to dry overnight. […] Treatments were replicated minimum of three times. […] The results are shown in FIG. 84 (No adjuvant alone treatment was performed).

[4] = tested on: susceptible/normal German cockroach (Monheim strain), Blattella germanica; assay: Knockdown/mortality of male cockroaches under continuous exposure on treated glazed tile; assay type: in vivo; details: Table 36, thiamethoxam/adjuvant in acetone, glazed tile, Monheim strain
Method: Treatments were allowed to dry overnight. […] Treatments were replicated a minimum of three times. […]
Treatments were allowed to dry overnight. […] Treatments were replicated a minimum of three times. Cockroach knockdown/mortality was evaluated at 5 minute intervals for the first 60 minutes after exposure and then at 2, 18 and 24 hours.

[5] = tested on: bait averse/resistant German cockroach (T-164 strain); assay: as above; assay type: in vivo, Blattella germanica; details: for toxicity / efficacy of the substance alone (summary in words): German cockroach T-164, treated glazed tile
[6] = Table 10 (Ex. 7), continuous exposure, listed as Methyl Linoleate (1%)
[7] = Table 10 (Ex. 7), continuous exposure, listed as Methyl Linoleate (5%)

| Structure (SMILES) | Average % Mortality after 15 min [2] [%] | Average % Mortality after 3 hr [2] [%] | Average % Mortality after 21 hr [2] [%] | Average % Knockdown & Mortality after 2 hr (Aedes aegypti mosquito) [%] | Average % Knockdown & Mortality after 3 hr (Aedes aegypti mosquito) [%] | Average % Knockdown & Mortality after 7 hr (Aedes aegypti mosquito) [%] | Average % Knockdown & Mortality after 24 hr (Aedes aegypti mosquito) [%] | Average % Knockdown & Mortality after 15 min [3] [%] | Average % Knockdown & Mortality after 30 min [3] [%] | Average % Knockdown & Mortality after 60 min [3] [%] | Average % Knockdown & Mortality after 2 hr [3] [%] | Average % Knockdown & Mortality after 20 hr [3] [%] | Average % Knockdown & Mortality after 30 min [4] [%] | Average % Knockdown & Mortality after 60 min [4] [%] | Average % Knockdown & Mortality after 90 min [4] [%] | Average % Knockdown & Mortality after 3 hr [4] [%] | Average % Knockdown & Mortality after 24 hr [4] [%] | also measured |
| --- | --- | --- | --- | --- | --- | --- | --- | --- | --- | --- | --- | --- | --- | --- | --- | --- | --- | --- |
| CC1(C)C(C=C(Cl)Cl)C1C(=O)OC(C#N)c1ccc(F)c(Oc2ccccc2)c1 (stereo not drawn) [β-cyfluthrin (.001%)] |  |  |  |  |  |  |  |  |  |  |  |  |  |  |  |  |  | Average % Mortality after 15 min [1]: 39%; Average % Mortality after 30 min [1]: 100%; Average % Mortality after 60 min [1]: 100%; Average % Mortality after 24 hr [1]: 100% |
| CC1(C)C(C=C(Cl)Cl)C1C(=O)OC(C#N)c1ccc(F)c(Oc2ccccc2)c1 (stereo not drawn) [β-cyfluthrin (.005%)] |  |  |  |  |  |  |  |  |  |  |  |  |  |  |  |  |  | Average % Mortality after 15 min [1]: 100%; Average % Mortality after 30 min [1]: 100%; Average % Mortality after 60 min [1]: 100%; Average % Mortality after 24 hr [1]: 100% |
| CN1COCN(Cc2cnc(Cl)s2)/C1=N\[N+](=O)[O-] [Thiamethoxam (0.1%)] | 12 | 46 | 100 | 0 | 0 | 0 | 0 | 0 | 0 | 0 | 3 | 33 | 7 | 73 | 93 | 100 | 100 |  |
| CN1COCN(Cc2cnc(Cl)s2)/C1=N\[N+](=O)[O-] [Thiamethoxam (0.01%)] | 0 | 19 | 100 | 0 | 0 | 0 | 0 | 0 | 0 | 0 | 9 | 71 | 13 | 67 | 87 | 100 | 100 |  |
| c1ccc(Cc2ccccc2)cc1 [Diphenyl methane, diphenyl methane] |  |  |  |  |  |  |  |  |  |  |  |  |  |  |  |  |  | toxicity / efficacy of the substance alone (summary in words) [2]: not toxic; Average % Knockdown & Mortality after 2 hr ([2]; Table 20 (Ex. 17), continuous exposure): 0%; Average % Knockdown & Mortality after 4 hr ([2]; Table 20 (Ex. 17), continuous exposure, listed as Diphenyl methane (DPM) (0.1%)): 13%; Average % Knockdown & Mortality after 4 hr ([2]; Table 20 (Ex. 17), continuous exposure, listed as Diphenyl methane (DPM) (5%)): 0%; toxicity / efficacy of the substance alone (summary in words) [5]: not toxic; Average % Knockdown & Mortality after 3 hr ([5]; Table 21 (Ex. 18), glazed tile, continuous exposure): 0% |
| CN1COCN(Cc2cnc(Cl)s2)/C1=N\[N+](=O)[O-] [Thiamethoxam (1%)] | 3 | 34 | 100 | 2 | 2 | 4 | 4 | 0 | 0 | 0 | 21 | 65 | 13 | 73 | 80 | 93 | 100 |  |
| CCCCOC(=O)CCCCCCCCC(=O)OCCCC [DBS (5%)] |  |  |  |  |  |  |  |  |  |  |  |  |  |  |  |  |  | Average % Knockdown & Mortality after 2 hr ([2]; 2 hr, Table 25, imidacloprid/dibutyl sebacate (DBS) in acetone): 100%; Average % Knockdown & Mortality after 4 hr ([2]; 4 hr, Table 25, imidacloprid/dibutyl sebacate (DBS) in acetone): 100%; Average % Knockdown & Mortality after 45 min ([5]; 45 min, Table 24, imidacloprid/dibutyl sebacate (DBS) in acetone, glazed tile, T-164 strain): 0% |
| CCCCC/C=C\C/C=C\CCCCCCCC(=O)OC [Methyl linoleate, methyl linoleate] |  |  |  |  |  |  |  |  |  |  |  |  |  |  |  |  |  | toxicity / efficacy of the substance alone (summary in words) [2]: at high rates (1 & 5%) was toxic; Average % Knockdown & Mortality after 4 hr ([2]; Table 10 (Ex. 7), continuous exposure, listed as Methyl Linoleate (0.1%)): 0%; Average % Knockdown & Mortality after 15 min [2, 6]: 0%; Average % Knockdown & Mortality after 4 hr [2, 6]: 7%; Average % Knockdown & Mortality after 15 min [2, 7]: 7%; Average % Knockdown & Mortality after 4 hr [2, 7]: 67%; toxicity / efficacy of the substance alone (summary in words) [5]: toxic; Average % Knockdown & Mortality after 15 min ([5]; Table 11 (Ex. 8), glazed tile, continuous exposure): 0% |
